≈ marks a conversion by molar mass, not a printed value. Like-named read-outs stand apart in the source and are kept apart here.
How the values were obtained:
Type in all cases: cell-based, Staphylococcus aureus
[1] = test system: MRSA and MSSA; test: Antibacterial activity of gallic acid, various gallates and multivalent phenol derivatives alone (agar plate dilution method, MIC); conditions: for MIC50 / MIC: Staphylococcus aureus
In short: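 Agar plate dilution MIC per Japan Society of Chemotherapy, on Mueller-Hinton II agar supplemented with 50 mg/l Ca-ion, 25 mg/l Mg-ion and 2% NaCl. Inoculum grown overnight at 37 °C and diluted in saline to 10^6 CFU/ml. Compounds tested alone.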

[2] = test system: MRSA COL and MRSA Strain No. 5; test: Potentiating effect of various gallates for antibacterial activity of oxacillin (MIC by broth microdilution method and FIC); conditions: for FIC value: combination with oxacillin
In short: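 Broth microdilution MIC per Japan Society of Chemotherapy method in cation-adjusted Mueller-Hinton broth (50 mg/l Ca, 25 mg/l Mg, 2% NaCl); inoculum 5×10^5 CFU/well from overnight 37° C culture. Gallate–oxacillin combinations evaluated by FIC.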

[3] = test system: MRSA and MSSA; test: Enhancing activity for the antibacterial activity of oxacillin by various gallates (agar plate dilution method, oxacillin MIC); conditions: MRSA and MSSA
Procedure: (§1) According to the agar plate dilution method defined by Japan Society of Chemotherapy, MIC (Minimum inhibitory concentration) was determined. CAMHA was prepared by adding 50 mg/l of Ca-ion, 25 mg/l of Mg-ion, and 2% of NaCl to Mueller-Hinton II Agar (MHA), and it was used as a medium for use in the measurement of sensitivity. The bacterial liquid was incubated at 37° C. overnight and diluted to 10^6 CFU/ml with saline.

[4] = test system: MRSA; test: Potentiating effect of isoamyl gallate for the antibacterial activity of other β-lactams (agar plate dilution method, MIC)
Procedure: as §1

[5] = COL, compound alone, read-out: MIC
[6] = MRSA #1, compound alone, read-out: MIC
[7] = MRSA #2, compound alone, read-out: MIC
[8] = MRSA #3, compound alone, read-out: MIC
[9] = MRSA #4, compound alone, read-out: MIC
[10] = MRSA #5, compound alone, read-out: MIC
[11] = MRSA #6, compound alone, read-out: MIC
[12] = MRSA #7, compound alone, read-out: MIC
[13] = MRSA #8, compound alone, read-out: MIC
[14] = MRSA #9, compound alone, read-out: MIC
[15] = MRSA #10, compound alone, read-out: MIC
[16] = MRSA #12, compound alone, read-out: MIC
[17] = MRSA #16, compound alone, read-out: MIC
[18] = MRSA #17, compound alone, read-out: MIC
[19] = MRSA #18, compound alone, read-out: MIC
[20] = MRSA #20, compound alone, read-out: MIC
[21] = MRSA #21, compound alone, read-out: MIC
[22] = MRSA #22, compound alone, read-out: MIC
[23] = MRSA #24, compound alone, read-out: MIC
[24] = MSSA #1003, compound alone, read-out: MIC
[25] = MSSA #1010, compound alone, read-out: MIC
[26] = MSSA #1020, compound alone, read-out: MIC
[27] = MSSA #1023, compound alone, read-out: MIC
[28] = MSSA #1029, compound alone, read-out: MIC
[29] = MSSA #1032, compound alone, read-out: MIC
[30] = RN4220, with isoamyl gallate 25 mg/ml

SMILES: CCCCCOC(=O)c1cc(O)c(O)c(O)c1 [Pentyl gallate, n-pentyl gallate]
- MIC alone ([1]; MRSA #2): 62.5 µg/mL (≈ 260 µM)
- MIC50 [1]: 62.5 µg/mL (≈ 260 µM)
- MIC ([1]; ATCC 6538 / MRSA / MSSA, read-out: MIC alone): 62.5 µg/mL (≈ 260 µM)
- MIC ([1]; COL, read-out: MIC alone): 62.5 µg/mL (≈ 260 µM)
- MIC ([1]; MRSA #1, read-out: MIC alone): 62.5 µg/mL (≈ 260 µM)
- MIC ([1]; MRSA #2, read-out: MIC alone): 67.5 µg/mL (≈ 281 µM)
- MIC ([1]; MRSA #3, read-out: MIC alone): 62.5 µg/mL (≈ 260 µM)
- MIC ([1]; MRSA #4, read-out: MIC alone): 62.5 µg/mL (≈ 260 µM)
- MIC ([1]; MRSA #5, read-out: MIC alone): 62.5 µg/mL (≈ 260 µM)
- MIC ([1]; MRSA #6, read-out: MIC alone): 62.5 µg/mL (≈ 260 µM)
- MIC ([1]; MRSA #7, read-out: MIC alone): 62.5 µg/mL (≈ 260 µM)
- MIC ([1]; MRSA #8, read-out: MIC alone): 62.5 µg/mL (≈ 260 µM)
- MIC ([1]; MRSA #9, read-out: MIC alone): 62.5 µg/mL (≈ 260 µM)
- MIC ([1]; MRSA #10, read-out: MIC alone): 62.5 µg/mL (≈ 260 µM)
- MIC ([1]; MRSA #12, read-out: MIC alone): 62.5 µg/mL (≈ 260 µM)
- MIC ([1]; MRSA #16, read-out: MIC alone): 62.5 µg/mL (≈ 260 µM)
- MIC ([1]; MRSA #17, read-out: MIC alone): 62.5 µg/mL (≈ 260 µM)
- MIC ([1]; MRSA #18, read-out: MIC alone): 62.5 µg/mL (≈ 260 µM)
- MIC ([1]; MRSA #20, read-out: MIC alone): 62.5 µg/mL (≈ 260 µM)
- MIC ([1]; MRSA #21, read-out: MIC alone): 62.5 µg/mL (≈ 260 µM)
- MIC ([1]; MRSA #22, read-out: MIC alone): 62.5 µg/mL (≈ 260 µM)
- MIC ([1]; MRSA #24, read-out: MIC alone): 62.5 µg/mL (≈ 260 µM)
- MIC ([1]; MSSA #1003, read-out: MIC alone): 62.5 µg/mL (≈ 260 µM)
- MIC ([1]; MSSA #1010, read-out: MIC alone): 62.5 µg/mL (≈ 260 µM)
- MIC ([1]; MSSA #1020, read-out: MIC alone): 62.5 µg/mL (≈ 260 µM)
- MIC ([1]; MSSA #1023, read-out: MIC alone): 62.5 µg/mL (≈ 260 µM)
- MIC ([1]; MSSA #1029, read-out: MIC alone): 62.5 µg/mL (≈ 260 µM)
- MIC ([1]; MSSA #1032, read-out: MIC alone): 62.5 µg/mL (≈ 260 µM)
- FIC value ([2]; MRSA COL): 0.375
- FIC value ([2]; MRSA Strain No. 5): 0.563
- effect of combination use with oxacillin (words) [3]: excellent potentiating effect

SMILES: CC(C)CCOC(=O)c1cc(O)c(O)c(O)c1 [isoAmyl gallate, Isoamyl gallate]
- MIC50 [1]: 62.5 µg/mL (≈ 260 µM)
- MIC ([1]; ATCC 6538 / MRSA / MSSA): 62.5 µg/mL (≈ 260 µM)
- MIC [1, 5]: 62.5 µg/mL (≈ 260 µM)
- MIC [1, 6]: 62.5 µg/mL (≈ 260 µM)
- MIC [1, 7]: 62.5 µg/mL (≈ 260 µM)
- MIC [1, 8]: 62.5 µg/mL (≈ 260 µM)
- MIC [1, 9]: 62.5 µg/mL (≈ 260 µM)
- MIC [1, 10]: 62.5 µg/mL (≈ 260 µM)
- MIC [1, 11]: 62.5 µg/mL (≈ 260 µM)
- MIC [1, 12]: 62.5 µg/mL (≈ 260 µM)
- MIC [1, 13]: 62.5 µg/mL (≈ 260 µM)
- MIC [1, 14]: 62.5 µg/mL (≈ 260 µM)
- MIC [1, 15]: 31.3 µg/mL (≈ 130 µM)
- MIC [1, 16]: 62.5 µg/mL (≈ 260 µM)
- MIC [1, 17]: 62.5 µg/mL (≈ 260 µM)
- MIC [1, 18]: 62.5 µg/mL (≈ 260 µM)
- MIC [1, 19]: 62.5 µg/mL (≈ 260 µM)
- MIC [1, 20]: 62.5 µg/mL (≈ 260 µM)
- MIC [1, 21]: 62.5 µg/mL (≈ 260 µM)
- MIC [1, 22]: 125 µg/mL (≈ 520 µM)
- MIC [1, 23]: 125 µg/mL (≈ 520 µM)
- MIC [1, 24]: 125 µg/mL (≈ 520 µM)
- MIC [1, 25]: 62.5 µg/mL (≈ 260 µM)
- MIC [1, 26]: 62.5 µg/mL (≈ 260 µM)
- MIC [1, 27]: 62.5 µg/mL (≈ 260 µM)
- MIC [1, 28]: 62.5 µg/mL (≈ 260 µM)
- MIC [1, 29]: 62.5 µg/mL (≈ 260 µM)
- FIC value ([2]; MRSA COL): 0.25
- FIC value ([2]; MRSA Strain No. 5): 0.313
- Ampicillin MIC [4, 30]: 0.063 mg/mL
- Cefapirin MIC [4, 30]: 0.063 mg/mL
- effects of the combination use with other β-lactams ([4]; with penicillin G, cefoxitin, ampicillin, and cefapirin): excellent effects of the combination use
- effect of combination use with oxacillin (words) [3]: potent effects of the combination use

SMILES: CC(C)COC(=O)c1cc(O)c(O)c(O)c1 [isoButyl gallate, isobutyl gallate]
- MIC50 [1]: 125 µg/mL (≈ 553 µM)
- MIC ([1]; ATCC 6538 / MRSA / MSSA): 125 µg/mL (≈ 553 µM)
- MIC [1, 5]: 125 µg/mL (≈ 553 µM)
- MIC [1, 6]: 125 µg/mL (≈ 553 µM)
- MIC [1, 7]: 62.5 µg/mL (≈ 276 µM)
- MIC [1, 8]: 125 µg/mL (≈ 553 µM)
- MIC [1, 9]: 125 µg/mL (≈ 553 µM)
- MIC [1, 10]: 125 µg/mL (≈ 553 µM)
- MIC [1, 11]: 62.5 µg/mL (≈ 276 µM)
- MIC [1, 12]: 125 µg/mL (≈ 553 µM)
- MIC [1, 13]: 125 µg/mL (≈ 553 µM)
- MIC [1, 14]: 62.5 µg/mL (≈ 276 µM)
- MIC [1, 15]: 62.5 µg/mL (≈ 276 µM)
- MIC [1, 16]: 125 µg/mL (≈ 553 µM)
- MIC [1, 17]: 125 µg/mL (≈ 553 µM)
- MIC [1, 18]: 125 µg/mL (≈ 553 µM)
- MIC [1, 19]: 125 µg/mL (≈ 553 µM)
- MIC [1, 20]: 125 µg/mL (≈ 553 µM)
- MIC [1, 21]: 125 µg/mL (≈ 553 µM)
- MIC [1, 22]: 125 µg/mL (≈ 553 µM)
- MIC [1, 23]: 125 µg/mL (≈ 553 µM)
- MIC [1, 24]: 125 µg/mL (≈ 553 µM)
- MIC [1, 25]: 125 µg/mL (≈ 553 µM)
- MIC [1, 26]: 125 µg/mL (≈ 553 µM)
- MIC [1, 27]: 125 µg/mL (≈ 553 µM)
- MIC [1, 28]: 62.5 µg/mL (≈ 276 µM)
- MIC [1, 29]: 125 µg/mL (≈ 553 µM)
- effect of the combination use with oxacillin by FIC values ([2]; COL Strain and Strain No. 5): most potent effect of the combination use
- FIC value ([2]; MRSA COL): 0.129
- FIC value ([2]; MRSA Strain No. 5): 0.266
- effect of combination use with oxacillin (words) [3]: potent effects of the combination use
